Assay results as given in ChEMBL document CHEMBL5727202, “Aryl acylsulfonamides as BLT1 antagonists” (2019).
pEC50: −log10 of the molar value.

Biological target: Leukotriene B4 receptor 1 (Homo sapiens, UniProt Q15722)
Test: BLT-1 cAMP Assay: The ability of compounds to antagonize the human BLT1 receptor was determined using a kit to measure changes in intracellular cyclic AMP levels (cAMP dynamic assay kit, Cisbio Cat. No. 62AM4PEC). HEK293 cells recombinantly expressing human BLT1 receptor, previously frozen in Recovery Medium (Life Technologies, Cat. No. 12648-010) were thawed and diluted into assay medium (HBSS (Hyclone SH 30268.01), 20 mM HEPES (Gibco 15630-106), 800 μM IBMX (Sigma I5879), 0.1% DTPA BSA (Perkin Elmer CR84-100)). The cell suspension was centrifuged at 200×g for 10 min and then resuspended in fresh assay medium to a density of 2.5×10^5 cells/mL. A Labcyte Echo 550 acoustic dispenser was used to transfer 25 nL of test compound dissolved in DMSO into the wells of a dry 384-well plate (Greiner 784075). All subsequent liquid additions were performed using a BIORAPTR (FRD; Beckman Coulter). Next, 5 μL of cell suspension was added and incubated for 20 min. at 37° C. and 5% CO2 in a humidified plastic tray. To test for agonist activity […] of assay buffer containing forskolin (Sigma F-6886. 4 μM for BLT1) was added and incubated for 30 minutes at 37° C. and 5% CO2 in a humidified plastic tray. To test for antagonist activity 5 μL of assay buffer containing forskolin (Sigma F-6886. 4 μM for BLT1) and either LTB4 (Sigma Aldrich L0517; 2 nM BLT1) was added and incubated for 30 minutes at 37° C. and 5% CO2 in a humidified plastic tray.The levels of cAMP were detected using the CisBio kit following the manufacturer's instructions: cAMP-d2 vial was reconstituted with distilled water and then diluted accordingly with conjugate & lysis buffer. 5 μL of cAMP-d2 working solution was added to all of the wells of the assay plate. cAMP-Cryptate vial was reconstituted with distilled water and then diluted accordingly with conjugate & lysis buffer. 5 μL of cAMP-Cryptate working solution were added to the assay plate. […]
Assay type: cell-based

Chain of Leukotriene B4 receptor 1 (Q15722 whole entry): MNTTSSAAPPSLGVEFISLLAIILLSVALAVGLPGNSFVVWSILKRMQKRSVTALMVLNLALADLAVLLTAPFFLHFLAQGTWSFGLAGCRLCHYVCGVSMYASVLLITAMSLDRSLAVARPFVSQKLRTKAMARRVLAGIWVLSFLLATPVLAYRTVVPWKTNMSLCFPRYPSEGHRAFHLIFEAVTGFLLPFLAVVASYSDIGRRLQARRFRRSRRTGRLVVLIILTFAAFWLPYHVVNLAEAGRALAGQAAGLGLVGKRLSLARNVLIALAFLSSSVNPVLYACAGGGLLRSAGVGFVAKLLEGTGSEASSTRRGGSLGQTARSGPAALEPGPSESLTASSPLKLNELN

Going from `CCn1nccc1C[C@@H]1COc2cc(-c3ccccc3C(=O)NS(=O)(=O)C3(C)CC3)ccc2[C@H]1O` (racemic) to `CC1(S(=O)(=O)NC(=O)c2ccccc2-c2ccc3c(c2)OC[C@@H](Cc2coc(-c4ccccc4)n2)[C@@H]3O)CC1` (single isomer, unassigned), the pEC50 rises from 6.27 to 7.22 (0.95 log units).

For `O=C(NS(=O)(=O)C(F)(F)F)c1ccc(F)cc1-c1ccc2c(c1)OC[C@H](Cc1ccc(-c3ccccc3)cc1)[C@H]2O` (single isomer, unassigned), the pEC50 was 7.46.
